Measured values taken from patent US7910624B1, “Compositions for the treatment of blood disorders” (The Trustees of Boston University, priority 1995, dated 2011).

How the values were obtained:
[1] = tested on: γ-globin promoter fragment containing FRE-γ1; assay: Gel mobility shift assay with nuclear extracts of patients' erythroblasts; set-up: species or system human; details: nuclear extracts of thalassemic patients on therapy, 21 and 43 hours after
Procedure: To gain further information on transcription factors binding to FRE elements, gel mobility shift assays with were carried out with promoter fragments containing FRE-γ1. The 3′ half of the DNA sequence of FRE-γ1 is overlapped with that of the stage-selector element (SSE) which has recently been identified in the γ-globin promoter and may be competitively silencing γ-globin gene expression in the fetal stage. Nuclear extracts were purified from a human erythroleukemia cell line, K562, and from erythroblasts that were isolated from peripheral blood or bone marrow of patients. Nuclear extracts used for gel mobility shift assays were prepared as described (Andrews et al., Nucl. Acids Res. 19:2499-2500, 1991). Oligonucleotides, corresponding to the nucleotide sequence from −39 to −78 of the γ-globin promoter (FIG. 13), were annealed to form double-stranded DNA and 5′-labeled with T4 polynucleotide kinase. Prior to addition of a labeled probe, 5 μg of nuclear extracts were mixed with 500 ng of poly(dA-dT) in 20 μl of a binding buffer (25 mM Hepes, pH 7.5, 50 mM KCl, 12.5 mM MgCl2, 1 mM DTT, 10 mM ZnSO4, 5% (v/v) glycerol, 1% (v/v) NP-40) at room temperature for 30 minutes. After addition of a labeled probe of 5×10^6 cpm, the mixture was incubated for 30 minutes at room temperature. […]

[2] = tested on: Human mammary carcinoma cells (MCF-7); assay: Human mammary carcinoma cell viability by FACS; type: cell-based; details: 4 days
Procedure: Human mammary carcinoma cells (MCF-7) were cultured alone (controls) and with arginine butyrate or isobutyramide for 4 days. Viability was assayed by FACS after incubation with a fluorescent dye taken up by viable cells (FIG. 6). Growth was decreased by 50% with isobutyramide at 1.0 mM, about 60% with arginine butyrate at 0.5 mM, and greater than 90% with arginine butyrate at 1.0 mM.

[3] = tested on: erythroid progenitor cells cultured from human cord blood; assay: Fetal globin expression in human cell cultures (3H-leucine labelled globin chains, densitometry); type: cell-based
Procedure, shortened: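 Human cord-blood mononuclear cells were grown in IMDM with 30% FCS and 2 U/ml erythropoietin, with compound present for 12–13 days or overnight. Colonies were labelled with 3H-leucine and chased overnight in leucine-free medium with compound. Globin chains were quantified by electrophoresis with Coomassie densitometry and autoradiography, relative to untreated cells from the same donor.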

Row | SMILES | protein-DNA binding activity in gel shift [1] | decrease of growth of MCF-7 ([2]; 0.5 mM) | decrease of growth of MCF-7 ([2]; 1.0 mM) | Gamma Increase ([3]; Exp. A, 0.1 mM, 12-13 days, above untreated cells) | Gamma/(Gamma + Beta) ([3]; Exp. A, 0.1 mM, 12-13 days, untreated 76.0%) | Gamma Increase ([3]; Exp. B, 0.5 mM, 12-13 days) | Gamma/(Gamma + Beta) ([3]; Exp. B, 0.5 mM, 12-13 days, untreated 25.4%, 27.5%) | Gamma Increase ([3]; Exp. C, 0.5 mM, overnight) | Gamma/(Gamma + Beta) ([3]; Exp. C, 0.5 mM, overnight, untreated 52.0%)
1 | CCCC(=O)O [AB, arginine butyrate] | a new binding activity appeared | about 60% | greater than 90% |  |  |  |  |  | 
2 | O=C(O)COc1ccccc1 [PAA, Phenoxyacetic acid] |  |  |  | 6% | 82.0% | 13% | 38.8% | 3.6% | 55.6%
